In PubChem BioAssay AID248 (DTP/NCI, 2004):
“And” between values parts separate entries of the source, which are not always exact repeats. Equal entries are not always repeated. Toxic doses and inconclusive results are not listed. Rule as the data show it: active = T/C of 150% or more; inactive = T/C below 125%.

System: L1210 leukemia ip in BDF1 mice, survival T/C
Experiment: NCI In Vivo Anticancer Drug Screen. Data for tumor model L1210 Leukemia (intraperitoneal) in B6D2F1 (BDF1) mice
Settings: endpoint: mean survival time, higher = longer survival
Summary of the method: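 Read-out is survival time, reported as the treated-group measurement over the vehicle-control measurement.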

[1] = dose: 100.0 mg/kg/injection, schedule: Q01DX001 (ip), vehicle: carboxymethylcellulose (CMC)
[2] = dose: 100.0 mg/kg/injection, schedule: Q04DX002 (ip), vehicle: Klucel (hydroxypropylcellulose) (HPC)
[3] = dose: 100.0 mg/kg/injection, schedule: Q04DX003 (ip), vehicle: saline with Tween-80
[4] = dose: 200.0 mg/kg/injection, schedule: Q04DX003 (ip), vehicle: saline with Tween-80
[5] = dose: 100.0 mg/kg/injection, schedule: Q04DX002 (ip), vehicle: saline with Tween-80
[6] = dose: 100.0 mg/kg/injection, schedule: Q04DX003 (ip), vehicle: Klucel (hydroxypropylcellulose) (HPC)
[7] = dose: 200.0 mg/kg/injection, schedule: Q04DX003 (ip), vehicle: Klucel (hydroxypropylcellulose) (HPC)
[8] = dose: 400.0 mg/kg/injection, schedule: Q04DX003 (ip), vehicle: Klucel (hydroxypropylcellulose) (HPC)
[9] = dose: 100.0 mg/kg/injection, schedule: Q04DX003 (ip), vehicle: saline

Measured: T/C

CN(C)c1ccc2nc3c(C(=O)O)cc(=O)c(O)c-3oc2c1
inactive: dose: 50.0 mg/kg/injection, schedule: Q01DX001 (ip), vehicle: carboxymethylcellulose (CMC) 104 % of control | [1] 101 % of control

COc1ccc(C(=O)/C=C\c2ccc(Cl)c(Cl)c2)cc1
inactive: [2] 100 % of control | dose: 200.0 mg/kg/injection, schedule: Q04DX002 (ip), vehicle: Klucel (hydroxypropylcellulose) (HPC) 97 % of control | dose: 400.0 mg/kg/injection, schedule: Q04DX002 (ip), vehicle: Klucel (hydroxypropylcellulose) (HPC) 107 % of control

CC(CC(=O)c1ccccc1)C(C(=O)c1ccccc1)c1ccccc1 (configuration not stated)
inactive: dose: 50.0 mg/kg/injection, schedule: Q01DX009 (ip), vehicle: other 101 % of control | dose: 100.0 mg/kg/injection, schedule: Q01DX009 (ip), vehicle: other 101 % of control | dose: 200.0 mg/kg/injection, schedule: Q01DX009 (ip), vehicle: other 101 % of control

COC(=O)c1ccc(Cn2ccc(=O)[nH]c2=O)cc1
inactive: dose: 50.0 mg/kg/injection, schedule: Q04DX003 (ip), vehicle: saline with Tween-80 92 % of control | [3] 95 % of control | [4] 89 % of control

CCCCN(CCCC)CCNc1ccc(C)c2sc3ccccc3c(=O)c12
inactive: dose: 40.0 mg/kg/injection, schedule: Q01DX Z (ip), vehicle: carboxymethylcellulose (CMC) 104 % of control | dose: 600.0 mg/kg/injection, schedule: Q01DX Z (ip), vehicle: carboxymethylcellulose (CMC) 95 % of control

O=C1CCCCc2nn(c3ccccc23)C(=O)CCCCc2nn1c1ccccc21
inactive: dose: 25.0 mg/kg/injection, schedule: Q04DX002 (ip), vehicle: Klucel (hydroxypropylcellulose) (HPC) 90 % of control | dose: 50.0 mg/kg/injection, schedule: Q04DX002 (ip), vehicle: Klucel (hydroxypropylcellulose) (HPC) 97 % of control | [2] 93 % of control

O=C(O)C(F)(F)C(F)(F)C(F)(F)F.O=C(O)C(F)(F)C(F)(F)C(F)(F)F.O=C(O)C(F)(F)C(F)(F)C(F)(F)F.O=C(O)C(F)(F)C(F)(F)C(F)(F)F.[Rh].[Rh]
inactive: dose: 25.0 mg/kg/injection, schedule: Q04DX002 (ip), vehicle: saline with Tween-80 94 % of control | dose: 50.0 mg/kg/injection, schedule: Q04DX002 (ip), vehicle: saline with Tween-80 102 % of control | [5] 105 % of control

BrC1C2C=CC(C2)C1Br (configuration not stated)
inactive: [6] 102 % of control | [7] 100 % of control | [8] 92 % of control

CCc1ccc(CC(=S)N2CCOCC2)cc1
inactive: [1] 101 % of control | dose: 200.0 mg/kg/injection, schedule: Q01DX001 (ip), vehicle: carboxymethylcellulose (CMC) 95 % of control | dose: 400.0 mg/kg/injection, schedule: Q01DX001 (ip), vehicle: carboxymethylcellulose (CMC) 109 % of control

CCCCCCN1C(=O)c2ccccc2S1(=O)=O
inactive: dose: 222.0 mg/kg/injection, schedule: Q01DX Z (ip), vehicle: methylcellulose (MC) 101 % of control | dose: 333.0 mg/kg/injection, schedule: Q01DX Z (ip), vehicle: methylcellulose (MC) 113 % of control | dose: 500.0 mg/kg/injection, schedule: Q01DX Z (ip), vehicle: methylcellulose (MC) 100 % of control

Cc1ccc(NC(=O)Nc2cccc3ccccc23)cc1Cl
inactive: dose: 100.0 mg/kg/injection, schedule: Q01DX009 (ip), vehicle: Klucel (hydroxypropylcellulose) (HPC) 99 % of control | [6] 91 % of control | dose: 200.0 mg/kg/injection, schedule: Q01DX009 (ip), vehicle: Klucel (hydroxypropylcellulose) (HPC) 94 % of control | [7] 86 % of control | dose: 400.0 mg/kg/injection, schedule: Q01DX009 (ip), vehicle: Klucel (hydroxypropylcellulose) (HPC) 97 % of control | [8] 90 % of control

O=C(O)c1ccccc1S(=O)(=O)c1ccccc1
inactive: dose: 100.0 mg/kg/injection, schedule: Q01DX009 (ip), vehicle: saline with Tween-80 109 % of control | dose: 200.0 mg/kg/injection, schedule: Q01DX009 (ip), vehicle: saline with Tween-80 101 % of control | dose: 400.0 mg/kg/injection, schedule: Q01DX009 (ip), vehicle: saline with Tween-80 103 % of control

CNc1ccc(Cl)cc1C
inactive: dose: 100.0 mg/kg/injection, schedule: Q04DX002 (sc), vehicle: olive oil, sesame oil, peanut oil 103 % of control | dose: 200.0 mg/kg/injection, schedule: Q04DX002 (sc), vehicle: olive oil, sesame oil, peanut oil 110 % of control | dose: 400.0 mg/kg/injection, schedule: Q04DX002 (sc), vehicle: olive oil, sesame oil, peanut oil 100 % of control

COc1ccc(C2(C)C(C#N)C(=O)NC(=O)C2C#N)cc1 (configuration not stated)
inactive: dose: 100.0 mg/kg/injection, schedule: Q01DX001 (ip), vehicle: saline 98 % of control | dose: 200.0 mg/kg/injection, schedule: Q01DX001 (ip), vehicle: saline 122 % of control | dose: 400.0 mg/kg/injection, schedule: Q01DX001 (ip), vehicle: saline 104 % of control

CCN(CC)CCOc1ccccc1C(C)C
inactive: dose: 20.0 mg/kg/injection, schedule: Q04DX003 (ip), vehicle: saline 118 % of control | dose: 40.0 mg/kg/injection, schedule: Q04DX003 (ip), vehicle: saline 97 % of control | dose: 80.0 mg/kg/injection, schedule: Q04DX003 (ip), vehicle: saline 94 % of control | [9] 101 % of control

COc1cc(/C=C/C(=O)O)cc(Br)c1O
inactive: [6] 104 % of control | [7] 101 % of control | [8] 103 % of control

C(=C/c1ccccc1)/C=C/C(=C/c1ccccc1)c1ccccc1
inactive: [3] 91 % of control | [4] 87 % of control and 96 % of control | dose: 400.0 mg/kg/injection, schedule: Q04DX003 (ip), vehicle: saline with Tween-80 87 % of control and 91 % of control

CN(C)CCOC(=O)c1ccc(C=O)cc1
inactive: dose: 100.0 mg/kg/injection, schedule: Q04DX002 (ip), vehicle: saline 105 % of control | dose: 200.0 mg/kg/injection, schedule: Q04DX002 (ip), vehicle: saline 110 % of control | dose: 400.0 mg/kg/injection, schedule: Q04DX002 (ip), vehicle: saline 90 % of control

Cc1ccc(S(=O)(=O)NCC(=O)NCCC#N)cc1
inactive: dose: 100.0 mg/kg/injection, schedule: Q01DX001 (ip), vehicle: Klucel (hydroxypropylcellulose) (HPC) 103 % of control | dose: 200.0 mg/kg/injection, schedule: Q01DX001 (ip), vehicle: Klucel (hydroxypropylcellulose) (HPC) 97 % of control | dose: 400.0 mg/kg/injection, schedule: Q01DX001 (ip), vehicle: Klucel (hydroxypropylcellulose) (HPC) 92 % of control

CCOC(=O)c1ccc(Nc2sc(C(=O)c3ccc(-c4ccccc4)cc3)c(N)c2C#N)cc1
inactive: [5] 92 % of control | dose: 200.0 mg/kg/injection, schedule: Q04DX002 (ip), vehicle: saline with Tween-80 86 % of control | dose: 400.0 mg/kg/injection, schedule: Q04DX002 (ip), vehicle: saline with Tween-80 95 % of control

Nc1ccc(Nc2nc3ccccc3s2)c(O)c1
inactive: dose: 75.0 mg/kg/injection, schedule: Q01DX001 (ip), vehicle: saline 104 % of control | dose: 150.0 mg/kg/injection, schedule: Q01DX001 (ip), vehicle: saline 101 % of control | dose: 300.0 mg/kg/injection, schedule: Q01DX001 (ip), vehicle: saline 104 % of control

CN(C)c1ccc(NC2=NCCO2)cc1
inactive: dose: 12.5 mg/kg/injection, schedule: Q04DX003 (ip), vehicle: saline 95 % of control | dose: 25.0 mg/kg/injection, schedule: Q01DX009 (ip), vehicle: saline 104 % of control | dose: 25.0 mg/kg/injection, schedule: Q04DX003 (ip), vehicle: saline 102 % of control | dose: 50.0 mg/kg/injection, schedule: Q01DX009 (ip), vehicle: saline 95 % of control | dose: 50.0 mg/kg/injection, schedule: Q04DX003 (ip), vehicle: saline 98 % of control | [9] 97 % of control | dose: 200.0 mg/kg/injection, schedule: Q04DX003 (ip), vehicle: saline 87 % of control
